{"source": "patent US8092816B2", "about": "“Insecticidal compositions for control of general household pests” (priority 2004, dated 2012)", "tested_on": "House Fly", "assay": "Example 7: house fly knockdown and mortality, bifenthrin and imidacloprid", "assay_type": "in vivo", "description": "The following examples further illustrate the present invention, but, of course, should not be construed as in any way limiting its scope. The examples set forth certain biological data illustrating the efficacy of the compositions of the present invention in controlling general household pests. Each example embodies a separate test wherein the pests were randomly selected from a population at a random age. As a result, from example to example, the ages of the pests can be very different. This age difference potentially translates to different baselines for each example. Therefore, data should only be compared within the example and not from example to example due to the differences in age of the pests from example to example. Unless otherwise indicated, all parts, percentages, and the like are by weight. The spray chamber used in the examples was approximately 76 inches tall, 73 inches long and 31 inches deep with an adjustable shelf (approximately 22 inches deep) and a movable spray nozzle. The spray chambers were calibrated to deliver a volume of approximately 1 gallon of liquid per 1000 square feet of area at about 14 pounds per square inch of pressure. A DeVilbiss hand held sprayer (Atomizer model 152) manufactured by DeVilbiss located in Glendale Heights, Ill. was used in testing house flies and mosquitoes. The DeVilbiss was used to apply approximately 3-5 milliliters of product at about 10 pounds per square inch.\nThe compositions of the present invention were tested for house fly activity in the following manner:\nTest compositions made up of TALSTARONE® MULTI-INSECTICIDE and a wettable powder of imidacloprid (MERIT) in distilled water were prepared that provided appropriate rates of application of combinations of bifenthrin and imidacloprid, as well as bifenthrin and imidacloprid alone.\nA DeVilbiss hand held sprayer was used to deliver the treatment solution at the desired volume and pressure. The house flies to be treated were collected and placed in screened 16 oz paper cups. The hand held sprayer was activated and the test compound was applied to each paper cup interior. House fly knockdown and mortality were measured.", "data": [{"smiles": "Cc1c(COC(=O)[C@@H]2[C@H](/C=C(\\Cl)C(F)(F)F)C2(C)C)cccc1-c1ccccc1", "note": "(racemic) [A, 2-methylbiphenyl-3-ylmethyl (Z)-(1RS)-cis-3-(2-chloro-3,3,3-trifluoroprop-1-enyl)-2,2-dimethylcyclopropanecarboxylate]", "values": [{"measurement": "Knockdown Rate @ 15 minute", "setting": "10 PPM, 0.001% by weight", "value": 0, "unit": "%"}, {"measurement": "Knockdown Rate @ 30 minute", "setting": "10 PPM, 0.001% by weight", "value": 0, "unit": "%"}, {"measurement": "Knockdown Rate @ 45 minutes", "setting": "10 PPM, 0.001% by weight", "value": 17, "unit": "%"}, {"measurement": "Knockdown Rate @ 60 minutes", "setting": "10 PPM, 0.001% by weight", "value": 40, "unit": "%"}, {"measurement": "Knockdown Rate @ 120 minutes", "setting": "10 PPM, 0.001% by weight", "value": 63, "unit": "%"}, {"measurement": "Knockdown Rate @ 4 hours", "setting": "10 PPM, 0.001% by weight", "value": 50, "unit": "%"}, {"measurement": "Mortality Rate @ 1 day", "setting": "10 PPM, 0.001% by weight", "value": 30, "unit": "%"}, {"measurement": "Knockdown Rate @ 15 minute", "setting": "50 PPM, 0.005% by weight", "value": 0, "unit": "%"}, {"measurement": "Knockdown Rate @ 30 minute", "setting": "50 PPM, 0.005% by weight", "value": 78, "unit": "%"}, {"measurement": "Knockdown Rate @ 45 minutes", "setting": "50 PPM, 0.005% by weight", "value": 97, "unit": "%"}, {"measurement": "Knockdown Rate @ 60 minutes", "setting": "50 PPM, 0.005% by weight", "value": 97, "unit": "%"}, {"measurement": "Knockdown Rate @ 120 minutes", "setting": "50 PPM, 0.005% by weight", "value": 97, "unit": "%"}, {"measurement": "Knockdown Rate @ 4 hours", "setting": "50 PPM, 0.005% by weight", "value": 97, "unit": "%"}, {"measurement": "Mortality Rate @ 1 day", "setting": "50 PPM, 0.005% by weight", "value": 97, "unit": "%"}]}]}
